Assay results from US11236102B2, “Oxabicycloheptane prodrugs” (Lixte Biotechnology, Inc., priority 2015, dated 2022).
Values joined by “and” are separate entries in the source; they are usually repeats but may differ in a detail not shown here. Equal values may be shown once. Read-outs that look alike come from different tables or passages of the source.

Test: in vivo
Set-up: species or system SD rats
Protocol: 105 was dissolved in 4% NaHCO3 in saline for IV administration. The detailed procedure of dosing solution preparation was presented in Appendix I.
Thirteen (13) animals were placed on the study. The animals in IV arm were free access to food and water. One extra animal was used for blank liver and plasma generation (5 mL per animal). The resulting blank liver and plasma was then applied to the development of bioanalytical method and sample bioanalysis for the entire study.
The IV injection was conducted via foot dorsal vein. Animals were free access to food and water before dose.
The animal is restrained manually. Approximately 150 μL of blood/time point is collected into sodium heparin tube via cardiac puncture for terminal bleeding (anesthetized under carbon dioxide). Blood sample will be put on ice and centrifuged to obtain plasma sample (2000 g, 5 min under 4° C.) within 10 minutes.
The animal will be euthanized with carbon dioxide inhalation. Open abdominal cavity with scissor to expose internal organs. Hold the carcass in an upright position and allow the organs to fall forward. Cut the connective tissues and remove the organs. Then the organs are rinsed with cold saline, dried on filtrate paper, placed into a screw-top tube and weighed, snap frozen by placing into dry-ice immediately.
Plasma and liver samples were stored at approximately −80° C. until analysis. The backup samples will be discarded after three weeks after in-life completion unless requested. The unused dosing solutions will be discarded within three weeks after completion of the study
Software: The PK parameters were determined by non-compartmental model of non-compartmental analysis tool, Pharsight Phoenix WinNonlin® 6.2 software.
Concentration data within 80%-120% of LLOQ was considered within normal instrumental variation and presented in the results. Terminal t1/2 calculation: Time points were automatic selected by “best fit” model for terminal half life estimation as the first option. Manual selection was applied when “best fit” could not well define the terminal phase.

[1] = IV 1 mg/kg, 0.25 hr, individual, 1 mg/kg
[2] = IV 1 mg/kg, 1 hr, individual, 1 mg/kg
[3] = IV 1 mg/kg, 2 hr, individual, 1 mg/kg

## CCN1CCN(C(=O)C2C3CCC(O3)C2C(=O)O)CC1 (stereo not drawn) [Compound 105]
105, IV 1 mg/kg, mean
  AUC(0-last) in liver: 1019 ng·h/g
[1]
  Liver-plasma concentration ratio of 105: 0.646
  liver concentration of 105: 988 ng/g
  plasma concentration of 105: 1530 ng/mL
[2]
  Liver-plasma concentration ratio of 105: 1.96
  liver concentration of 105: 446 ng/g
  plasma concentration of 105: 228 ng/mL
[3]
  Liver-plasma concentration ratio of 105: 2.19 and 6.09
  liver concentration of 105: 131 ng/g
  plasma concentration of 105: 45.2 ng/mL and 21.5 ng/mL
IV 1 mg/kg, 6 hr, individual
  liver concentration of 105: BQL
  plasma concentration of 105: BQL
IV 1 mg/kg, 6 hr, mean
  liver concentration of 105: BQL
  plasma concentration of 105: BQL
IV 1 mg/kg, 10 hr, individual
  liver concentration of 105: BQL
  plasma concentration of 105: BQL
IV 1 mg/kg, 10 hr, mean
  liver concentration of 105: BQL
  plasma concentration of 105: BQL
IV 1 mg/kg, 24 hr, individual
  liver concentration of 105: BQL
  plasma concentration of 105: BQL
IV 1 mg/kg, 24 hr, mean
  liver concentration of 105: BQL
  plasma concentration of 105: BQL
male, SD, rat, in vivo, iv, 1 mg/kg, IV 1 mg/kg, 0.25 hr, individual, read-out: Liver-plasma concentration ratio of 105
  Kp at 0.25 h: 0.554
male, SD, rat, in vivo, iv, 1 mg/kg, IV 1 mg/kg, 0.25 hr, individual, read-out: liver concentration of 105
  concentration at 0.25 hr: 1070 ng/g
male, SD, rat, in vivo, iv, 1 mg/kg, IV 1 mg/kg, 0.25 hr, individual, read-out: plasma concentration of 105
  concentration at 0.25 hr: 1930 ng/mL
male, SD, rat, in vivo, iv, 1 mg/kg, IV 1 mg/kg, 0.25 hr, mean, read-out: Liver-plasma concentration ratio of 105
  Kp at 0.25 h: 0.6
male, SD, rat, in vivo, iv, 1 mg/kg, IV 1 mg/kg, 0.25 hr, mean, read-out: liver concentration of 105
  concentration at 0.25 hr: 1030 ng/g
male, SD, rat, in vivo, iv, 1 mg/kg, IV 1 mg/kg, 0.25 hr, mean, read-out: plasma concentration of 105
  concentration at 0.25 hr: 1730 ng/mL
male, SD, rat, in vivo, iv, 1 mg/kg, IV 1 mg/kg, 1 hr, individual, read-out: Liver-plasma concentration ratio of 105
  Kp at 1 h: 2.19
male, SD, rat, in vivo, iv, 1 mg/kg, IV 1 mg/kg, 1 hr, individual, read-out: liver concentration of 105
  concentration at 1 h: 576 ng/g
male, SD, rat, in vivo, iv, 1 mg/kg, IV 1 mg/kg, 1 hr, individual, read-out: plasma concentration of 105
  concentration at 1 hr: 263 ng/mL
male, SD, rat, in vivo, iv, 1 mg/kg, IV 1 mg/kg, 1 hr, mean, read-out: Liver-plasma concentration ratio of 105
  Kp at 1 h: 2.07
male, SD, rat, in vivo, iv, 1 mg/kg, IV 1 mg/kg, 1 hr, mean, read-out: liver concentration of 105
  concentration at 1 h: 511 ng/g
male, SD, rat, in vivo, iv, 1 mg/kg, IV 1 mg/kg, 1 hr, mean, read-out: plasma concentration of 105
  concentration at 1 hr: 246 ng/mL
male, SD, rat, in vivo, iv, 1 mg/kg, IV 1 mg/kg, 2 hr, individual, read-out: liver concentration of 105
  concentration at 2 h: 99.2 ng/g
male, SD, rat, in vivo, iv, 1 mg/kg, IV 1 mg/kg, 2 hr, mean, read-out: Liver-plasma concentration ratio of 105
  Kp at 2 h: 4.14
male, SD, rat, in vivo, iv, 1 mg/kg, IV 1 mg/kg, 2 hr, mean, read-out: liver concentration of 105
  concentration at 2 h: 115 ng/g
male, SD, rat, in vivo, iv, 1 mg/kg, IV 1 mg/kg, 2 hr, mean, read-out: plasma concentration of 105
  concentration at 2 hr: 33.4 ng/mL
male, SD, rat, in vivo, 105 in liver, IV 1 mg/kg, mean, read-out: AUC(0-t)
  AUC(0-t): 1020
male, SD, rat, in vivo, 105 in liver, IV 1 mg/kg, mean, read-out: Cmax
  Cmax: 1030 ng/mL
male, SD, rat, in vivo, 105 in plasma, IV 1 mg/kg, mean
  MRT inf: 19.7 min
male, Sprague-Dawley, rat, in vivo, 105, IV 1 mg/kg, mean, read-out: Cmax in liver
  Cmax: 1030 ng/g
male, Sprague-Dawley, rat, in vivo, 105 in liver, IV 1 mg/kg, mean
  Tmax: 15 min
male, Sprague-Dawley, rat, in vivo, 105 in plasma, IV 1 mg/kg, mean
  clearance: 10.9 mL/min/kg
male, Sprague-Dawley, rat, in vivo, 105 in plasma, IV 1 mg/kg, mean, read-out: AUC(0-t) (AUClast)
  AUC(0-t): 1510 ng·h/mL
male, Sprague-Dawley, rat, in vivo, 105 in plasma, IV 1 mg/kg, mean, read-out: AUC(0-∞) (AUCINF)
  AUC(0-inf): 1530 ng·h/mL
male, Sprague-Dawley, rat, in vivo, 105 in plasma, IV 1 mg/kg, mean, read-out: Vss
  Vd: 0.215 L/kg
male, Sprague-Dawley, rat, in vivo, 105 in plasma, IV 1 mg/kg, mean, read-out: t1/2z (terminal half life) (converted)
  half-life: 18.5 min
